From patent publication US20220257722A1, “COMPOSITIONS AND METHODS OF TREATING AND PREVENTING SYSTEMIC COMPLICATIONS OF ACUTE ILLNESS” (United States Government As Represented By The Department …, priority 2019, published 2022)

System: rat small intestine
Assay: LPS-induced small intestinal FD4 paracellular permeability in vivo (PV and arterial FD4)
Settings: for TDG-induced inhibitory effect on PV FD4 levels: LPS 6 hr + TDG 6 hr; for TDG-induced inhibitory effect on PV FD4 levels / Arterial FD4 levels in LPS 6 hr + TDG 6 hr rats: inhibitor iv at t=-10 min or co-perfused; for Arterial FD4 levels in LPS 6 hr + TDG 6 hr rats: t=90 min
Description: LPS treatment. Animals were treated with LPS (5 mg/kg, ip) once at 9 am. For the acute experiments, the animals were fasted overnight and were treated with LPS 1, 3, or 6 hr before the anesthesia for small intestinal perfusion of FD4 as described herein. For the 24-hr experiments, the animals fed ad libitum were treated with LPS 24 hr before anesthesia induction used for the perfusion study. As a control, saline was injected ip at the corresponding time before the experiments. The animal groups were expressed as control, LPS 1 hr, LPS 3 hr, LPS 6 hr, and LPS 24 hr.
Small intestinal perfusion. The small intestinal perfusion from the duodenum, and portal vein (PV) cannulation were prepared by the modified methods. Under isoflurane anesthesia (2%), the animal was placed […] on a recirculating heating block system (Summit Medical Systems, Bend, Oreg., USA) in order to maintain body temperature at 36-37° C. Prewarmed saline was infused via the right femoral vein at 1.08 ml/h using a Harvard infusion pump (Harvard Apparatus, Holliston, Mass., USA). The abdomen was incised, and the PV was cannulated with a polyethylene (PE)-50 tube attached with 23G needle and fixed by methylacrylate adhesive at the insertion site. The tube was filled with heparinized saline enabling repeated blood sampling. Samples of 0.2 ml PV blood were collected every 15 min, followed by flushing with 0.2 ml heparinized saline. A polyethylene tube (diameter 5 mm) filled with PBS was inserted through the forestomach and tied at 0.5 cm caudal from the pyloric ring. After bolus perfusion of 2-ml phosphate buffer saline (PBS, 10 mM, pH 7.4) into the duodenum from the tube, followed by stabilization for ˜30 min, the time was set as t=0. FD4 (0.1 mM) in 10-ml PBS was slowly perfused at t=0 min for 30 sec. Blood samples were collected into a 0.5-ml tubes containing 1-μl each of EDTA (0.5 M) and the dipeptidyl peptidase-4 (DPP4) inhibitor NVP-728 (1 mM), and immediately centrifuged at 5,000× g for 5 min, after which the plasma was stored on ice or at −80 ° C. until use. At 90 min, after collection of PV samples, arterial blood was taken from abdominal aorta, followed by euthanasia by thoracotomy.
Appearance of FD4 into the PV and arterial plasma was assessed by fluorescence intensity measurement using a multi-mode microplate reader (Synergy-2, BioTek Instruments, Inc., Winooski, VT, USA). Fluorescence intensity in t=0 sample as background was subtracted from the fluorescence values measured in other time point samples. FD4 content was calculated according to the standard curve generated each time of measurement.
Drug treatment for the intestinal perfusion study. The following drugs were administered at the time after LPS treatment: the GLP2R partial agonist/antagonist GLP-2(3-33) (1 mg/kg; 280 nmol/kg, ip) was given immediately after LPS treatment (0 hr after LPS treatment); GLP-2 (380 μg/kg; 100 nmol/kg, ip) was given 6 hr after LPS treatment; a stable GLP-2 analog TDG (50 μg/kg; 13.3 nmol/kg) was ip injected 0, 3, 6, or 12 hr after LPS treatment or iv injected at t=0 min just before the perfusion of FD4 solution (6 or 24 hr after LPS treatment). In acute experiments, TDG was iv injected at t=0 min (6 hr after LPS treatment) with or without the pretreatment of the selective IGF1 receptor (IGF1R) tyrosine kinase inhibitor AEW541 (0.1 mg/kg, iv), the selective EGF receptor (EGFR) tyrosine kinase inhibitor PD153035 (10 μg/kg, iv) or PG97-269 (1 mg/kg, iv) at t=−10 min, or the co-perfusion of L-NAME (0.1 mM, pf) with FD4 solution.

Compound | LPS-induced increases in PV FD4 levels at 6 hr (L-NAME 0.1 mM alone co-perfused with FD4, no TDG) | TDG-induced inhibitory effect on PV FD4 levels | Arterial FD4 levels in LPS 6 hr + TDG 6 hr rats | PV FD4 levels (LPS 6 hr model, TDG 50 μg/kg ip 3 hr after LPS) | PV FD4 levels (LPS 6 hr model, TDG 50 μg/kg iv 6 hr after LPS (t=0 min)) | arterial FD4 levels (LPS 24 hr model, TDG 0 hr after LPS) | PV FD4 levels (LPS 24 hr model, TDG 50 μg/kg ip 0 hr after LPS) | PV FD4 levels (LPS 24 hr model, TDG 50 μg/kg ip 6 hr after LPS) | PV FD4 levels (LPS 24 hr model, TDG 50 μg/kg ip 12 hr after LPS) | PV FD4 levels (LPS 24 hr model, TDG 50 μg/kg iv 24 hr after LPS) | arterial FD4 levels (LPS 24 hr model, TDG 6 hr after LPS) | arterial FD4 levels (LPS 24 hr model, TDG 12 hr after LPS) | arterial FD4 levels (LPS 24 hr model, TDG 24 hr after LPS)
COC(=O)[C@@H](N)CCCNC(=N)N[N+](=O)[O-] [L-NAME, Nω-nitro-L-arginine methyl ester] | no effect | reversed | reduced |  |  |  |  |  |  |  |  |  | 
CC[C@H](C)[C@H](NC(=O)[C@H](Cc1ccccc1)NC(=O)[C@H](CC(=O)O)NC(=O)[C@H](CCCNC(=N)N)NC(=O)[C@H](C)NC(=O)[C@H](C)NC(=O)[C@H](CC(C)C)NC(=O)[C@H](CC(N)=O)NC(=O)[C@H](CC(=O)O)NC(=O)[C@H](CC(C)C)NC(=O)[C@@H](NC(=O)[C@@H](NC(=O)[C@H](CC(N)=O)NC(=O)[C@H](CCSC)NC(=O)[C@H](CCC(=O)O)NC(=O)[C@H](CC(=O)O)NC(=O)[C@H](CO)NC(=O)[C@H](Cc1ccccc1)NC(=O)[C@H](CO)NC(=O)CNC(=O)[C@H](CC(=O)O)NC(=O)CNC(=O)[C@@H](N)Cc1c[nH]cn1)[C@@H](C)O)[C@@H](C)CC)C(=O)N[C@@H](CC(N)=O)C(=O)N[C@@H](Cc1c[nH]c2ccccc12)C(=O)N[C@@H](CC(C)C)C(=O)N[C@H](C(=O)N[C@@H](CCC(N)=O)C(=O)N[C@H](C(=O)N[C@@H](CCCCN)C(=O)N[C@H](C(=O)N[C@H](C(=O)N[C@@H](CC(=O)O)C(=O)O)[C@@H](C)O)[C@@H](C)CC)[C@@H](C)O)[C@@H](C)CC [TDG] |  |  |  | reduced | reduced | no significant effect | little effect | reduced | reduced | little effect | inhibited | inhibited | no significant effect
[Ac-His^1, D-Phe^2, Lys^15, Arg^16, Leu^27]-VIP(1-7)-GRF(8-27) (HFDAVFTNSYRKVLKRLSARKLLQDIL; HELM PEPTIDE1{[ac].H.[dF].D.A.V.F.T.N.S.Y.R.K.V.L.K.R.L.S.A.R.K.L.L.Q.D.I.L.[am]}$$$$V2.0; SMILES CC[C@H](C)[C@H](NC(=O)[C@H](CC(=O)O)NC(=O)[C@H](CCC(N)=O)NC(=O)[C@H](CC(C)C)NC(=O)[C@H](CC(C)C)NC(=O)[C@H](CCCCN)NC(=O)[C@H](CCCNC(=N)N)NC(=O)[C@H](C)NC(=O)[C@H](CO)NC(=O)[C@H](CC(C)C)NC(=O)[C@H](CCCNC(=N)N)NC(=O)[C@H](CCCCN)NC(=O)[C@H](CC(C)C)NC(=O)[C@@H](NC(=O)[C@H](CCCCN)NC(=O)[C@H](CCCNC(=N)N)NC(=O)[C@H](Cc1ccc(O)cc1)NC(=O)[C@H](CO)NC(=O)[C@H](CC(N)=O)NC(=O)[C@@H](NC(=O)[C@H](Cc1ccccc1)NC(=O)[C@@H](NC(=O)[C@H](C)NC(=O)[C@H](CC(=O)O)NC(=O)[C@@H](Cc1ccccc1)NC(=O)[C@H](Cc1c[nH]cn1)NC(C)=O)C(C)C)[C@@H](C)O)C(C)C)C(=O)N[C@@H](CC(C)C)C(N)=O) [PG97-269] |  | reversed | reduced |  |  |  |  |  |  |  |  |  | 
